We go through 16 compounds from patent US9161944B2, “Method for preventing cancer metastasis” (INSERM (INSTITUT NATIONAL DE LA SANTE ET DE LA SANTE ET DE …, priority 2010, dated 2015).

The target in one data set is SK3/KCa2.3 channel (Homo sapiens, UniProt Q9UGI6). In words: Whole-cell patch clamp on HEK293 cells expressing SK3. It counts as cell-based. On the set-up: expressed in transfected cells; host or cells: HEK293, lentiviral transduction, clonal selection. Particulars: for Conductance decreasing / Inhibition of I at 0 mV: HEK 293 LvSK3 cells; for Inhibition of I at 0 mV: 10 μM stated for JPH1701; for Effect on SK3 activity: less effect than JPH1701. The procedure:
The percentages of inhibition represent the ratio (SK3 current amplitude and chord conductance (in the presence of 10 μM JPH1701)/SK3 current amplitude in control experiments). Black bars show current at 0 mV and grey bars indicate the chord conductance. […] Columns, mean, bars, SEM, (5 cells for racemic mix and 4 cells for + and − forms).
MDA-MB-435s and HEK293 cells were transduced with lentiviral vector at multiplicities of infection (MOI) of 1 to 3 in the presence of polybrene (4 μg/ml, Sigma).
Experiments were performed with cells seeded into 35-mm Petri dishes at 3000 cells per cm2. All experiments were performed using the conventional whole-cell recording configuration of the patch-clamp technique as previously described. PCa solution was 7 and 6.4 respectively for MDA-MB-435s and HEK293-SK3/KCa2.3 cells.
Briefly, experiments were conducted using Axopatch 200B patch-clamp amplifier (Axon Instrument) and data, digitized with 1322-A Digidata converter (Axon Instrument), were stored on a computer using Clampex of pClamp 9.2 software (Axon Instru-ment). The patch-clamp data was analyzed using both Clampfit 9.2 and Origin 7.0 software (Microcal Inc., Northampton, Mass., USA).
The pipette solution for the whole-cell recordings contained (in mM): K-glutamate 125, KCl 20, MgCl2 1, Mg-ATP 1, HEPES 10, and pH was adjusted to 7.2 with KOH and various concentrations of CaCl2 and EGTA were added to obtain calculated pCa=7 (0.37 mM CaCl2 and 10 mM EGTA) or pCa=6.4 (0.7 mM CaCl2 and 1 mM EGTA).
We next developed HEK cells expressing SK3/KCa2.3 channel in order to test directly analogues on SK3 activity measured using patch-clamp technique (FIG. 8). […] The JPH1701-induced inhibition of SK3 current was analysed at 0 mV and the entire time course of the experiment is depicted in FIG. 8A.
Current activity has been measured in HEK 293 LvSK3 and in MDA-MB-435s cells. The percentages represent the inhibition of current and of conductance by compounds on SK3 channel in HEK 293 cells.

The next data set deals with MDA-MB-435s (SK3+). In words: Cell migration / 2D motility assay (transwell inserts, wound healing). In kind it is cell-based, human. To be noted: for Effect on cell migration: summary of table 2. The source says:
Alternatively, the cell migration inhibitory activity of a compound of formula (I) may be assessed by performing a Wound Healing assay that is disclosed in the examples herein and for which the one skilled in the art may also refer to the article of Rodriguez et al. (2005, Methods Biol Mol, Vol. 294: 23-29). The wound-healing assay is simple, inexpensive, and one of the earliest developed methods to study directional cell migration in vitro. This method mimics cell migration during wound healing in vivo. The basic steps involve creating a “wound” in a cell monolayer, capturing the images at the beginning and at regular intervals during cell migration to close the wound, and comparing the images to quantify the migration rate of the cells. It is particularly suitable for studies on the effects of cell-matrix and cell-cell interactions on cell migration. Cells are seeded in culture dishes and grown until confluence in DMEM supplemented with 10% foetal calf serum. The monolayer is then scratched with a sterile yellow pipette tip. Then, migration of cells to the cleared area is inspected under a microscope. Pictures are taken directly at the time of scratching and after 24 h, so as to determine the ability of the tested cells to migrate.
Wound healing assay: Cells were seeded in culture dishes and grown until confluence in DMEM supplemented with 10% foetal calf serum. The monolayer was scratched with a sterile yellow pipette tip. The migration of cells to the cleared area was inspected under a microscope. Pictures were taken directly at the time of scratching and after 24 h.
At least three independent experiments were each performed in triplicate.

For data set [1], the target named is T1, PAF receptor (Homo sapiens, UniProt P25105). In words: PAF receptor agonist response (increase of intracellular calcium). To be noted: 0.3 and 2 μM, FIG. 11B. It counts as cell-based. The protocol:
(§1) FIG. 11: Effects of JPH1701 on PAF receptor, PLC and PKCs activities. FIG. 11A) Histogram showing the percentage of control specific binding of 3H-C16-PAF to recombinant PAF receptor obtained from membrane homogenates of CHO cells by 0.3 and 2 μM edelfosine and by 0.3 and 2 μM JPH1701. FIG. 11B) Histogram showing the percentage of control agonist response (% effect i.e: increase of intracellular calcium concentration) of 0.3 and 2 μM edelfosine and JPH1701 on PAF receptor normalized to the response induced by 100 nM C16-PAF. […] FIG. 11C-D) Dose responses curves showing the effect of JPH1701 on PKCs (FIG. 11C, PKCs are: alpha, Beta 1, Beta 2, Gamma, Delta, Epsilon, Zeta, Eta, Theta, Iota) and PhosphoLipase C (PLC) activities (FIG. 11D).
(In general: A change in cytosolic calcium serves as a functional read-out for many receptors and channels.)

The next data set addresses PhosphoLipase C (PLC). In words: PhosphoLipase C activity. It counts as biochemical. To be noted: FIG. 11D. The protocol:
as §1

A short description of data set [2]: Cytotoxicity / cell viability (MTT, tetrazolium salt reduction). To be noted: human.
The test system of data set [3] is MDA-MB-435s. Described as above.
Data set [4] concerns the target T1, PAF receptor. As to the kind of experiment: 3H-C16-PAF binding, membrane homogenates of CHO cells. Set-up: expressed in transfected cells; host or cells: CHO cells (membrane homogenates). Particulars: 0.3 and 2 μM, FIG. 11A. The protocol:
as §1

Data set [5] has as its system MDA-MB-435s.
[6] abbreviates: Homo sapiens, MDA-MB-435S, Table 2, concentration 300 nM.
Setting [7] is: Table 2, viability of MDA-MB-435s.

Read-outs that look alike come from different tables or passages of the source.

T1 sequence (P25105 whole entry): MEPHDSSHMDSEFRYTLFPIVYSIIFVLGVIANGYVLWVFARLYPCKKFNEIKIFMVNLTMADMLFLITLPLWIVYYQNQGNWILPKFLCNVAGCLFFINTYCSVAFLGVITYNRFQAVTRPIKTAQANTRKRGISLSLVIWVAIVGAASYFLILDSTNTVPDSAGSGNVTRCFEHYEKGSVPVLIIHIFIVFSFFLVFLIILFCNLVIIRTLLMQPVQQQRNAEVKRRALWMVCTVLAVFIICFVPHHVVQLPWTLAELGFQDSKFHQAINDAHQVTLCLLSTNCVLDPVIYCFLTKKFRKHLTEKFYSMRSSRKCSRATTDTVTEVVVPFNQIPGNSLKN

Take `CCCCCCCCCCCCCCCCOCC(COP(=O)(O)OC1OC(COC(C)=O)C(OC2OC(COC(C)=O)C(OC(C)=O)C(OC(C)=O)C2OC(C)=O)C(OC(C)=O)C1OC(C)=O)OC.CCN(CC)CC` (mixture of isomers) [CHS31]: on SK3/KCa2.3 channel, the Conductance decreasing was found to be 38.9 ± 5.5%, the “Inhibition of I at 0 mV” value came to 42.5 ± 8.2% and the “Effect on SK3 activity” value is “reduced SK3 activity”.
`CCCCCCCCCCCCCCCCCCOCC(COP(=O)([O-])OCC[N+](C)(C)C)OC` (centres unmarked) [Edelfosine, reference compound] showed an inhibition at 0.01 µM in the data set with MDA-MB-435s (SK3+) (Homo sapiens, MDA-MB-435S, Table 2, concentration 10 nM) of 60%. This compound also displayed an inhibition at 0.3 µM in the data set on MDA-MB-435s (SK3+) (setting [6]) of 80%. For the same compound, the “PAF receptor agonist response” value at PAF receptor [1] is given as “dose-dependently increase intracellular calcium”. Also, the IC50 (in general, the concentration needed to halve the response being measured) is 2.5 µM against PhosphoLipase C (PLC) and roughly 5 µM with MDA-MB-435s [3] (Homo sapiens, MDA-MB-435S). In addition, the IC50 at 24 h in data set [2] (MDA-MB-435s cells (metastatic cancer cell line)) is less than 5 µM. Besides, the Toxicity result with MDA-MB-435s [3] (setting [7]) is recorded as “Yes at 10 μM”. The “Interaction with C16-PAF binding site of PAF receptor” value on PAF receptor [4] is given as “able to interact”.
As for `CCCCCCCCCCCCCCCCOCC(O)CO` (centres unmarked) [GS 1361], the “Migration (% of inhibition)” value in the data set on MDA-MB-435s (SK3+) (Table 2, concentration 300 nM) stood at 40%. Further, the Toxicity result in the data set on MDA-MB-435s [5] is reported as “No at 10 μM”.
Take `CCCCCOCC(O)CO[C@@H]1O[C@H](COC(C)=O)[C@@H](OC(C)=O)[C@H](OC(C)=O)[C@H]1OC(C)=O` (some centres unmarked) [HCG450]: the Toxicity result in the data set on MDA-MB-435s [5] is recorded as “Yes at 10 μM”. The IC50 in the data set on MDA-MB-435s [3] (setting [7]) is roughly 30 µM.
`CCCCCOCC(O)CO[C@@H]1O[C@H](CO)[C@@H](O)[C@H](O)[C@H]1O` (some centres unmarked) [HCG451]: the “Migration (% of inhibition)” value in the data set with MDA-MB-435s (SK3+) (Table 2, concentration 300 nM) was “No effect”. Moreover, in the data set on MDA-MB-435s (SK3+), the “Effect on cell migration” value is recorded as “ineffective in cell migration”. In the data set on MDA-MB-435s [5], the Toxicity entry is recorded as “No until 100 μM”.
Consider `CCCCCCCCCCCCCCCCOC[C@H](CO[C@@H]1O[C@H](COC(C)=O)[C@@H](O[C@@H]2O[C@H](COC(C)=O)[C@H](OC(C)=O)[C@H](OC(C)=O)[C@H]2OC(C)=O)[C@H](OC(C)=O)[C@H]1OC(C)=O)OC` [JPH1700], for which, on SK3/KCa2.3 channel, the Conductance decreasing turned out to be 18.1 ± 2.3%, the “Inhibition of I at 0 mV” value worked out at 22.8 ± 2.1% and the “Effect on SK3 activity” value was “reduced SK3 activity”.
Consider `CCCCCCCCCCCCCCCCOC[C@H](CO[C@@H]1O[C@H](CO[C@H]2O[C@H](COC(C)=O)[C@H](OC(C)=O)[C@H](OC(C)=O)[C@H]2OC(C)=O)[C@@H](OC(C)=O)[C@H](OC(C)=O)[C@H]1OC(C)=O)OC` [JPH1874], for which, at SK3/KCa2.3 channel, the Conductance decreasing came to 34.1 ± 6.8% and the “Inhibition of I at 0 mV” value is given as 44.0 ± 5.5%.
On the same counts, the results for `CCCCCCCCCCCCCCCCOC[C@H](CO[C@@H]1O[C@H](COC(C)=O)[C@@H](O[C@H]2O[C@H](COC(C)=O)[C@@H](OC(C)=O)[C@H](OC(C)=O)[C@H]2OC(C)=O)[C@H](OC(C)=O)[C@H]1OC(C)=O)OC` [JPH1880] are 46.1 ± 6.1% and 44.7 ± 5.0%.
With `CCCCCCCCCCCCCCCCOCC(COP(=O)(O)OCC[N+](C)(C)C)OC` (centres unmarked) [JPH 1321], the inhibition at 0.1 µM in the data set with MDA-MB-435s (SK3+) (Homo sapiens, MDA-MB-435S, Table 1, concentration 100 nM, read-out: Cell Migration inhibition of MDA-MB-435s (SK3+), Inhibitory effect) was determined as 50%. Also, in data set [2] (MDA-MB-435s cells), the IC50 at 24 h is roughly 30 µM.
Consider `CCCCCCCCCCCCCCCCOCC(CO[C@@H]1O[C@H](COC(C)=O)[C@H](OC(C)=O)[C@H](OC(C)=O)[C@H]1OC(C)=O)OC` (some centres unmarked) [JPH 1519], for which the “Migration (% of inhibition)” value in the data set on MDA-MB-435s (SK3+) (Table 2, concentration 100 nM) is listed as 20%.
As for `CCCCCCCCCCCCCCCCOCC(CO[C@@H]1O[C@H](CO)[C@H](O)[C@H](O)[C@H]1O)OC` (some centres unmarked) [JPH 1524], in the data set on MDA-MB-435s (SK3+) (Table 2, concentration 300 nM), the “Migration (% of inhibition)” value came out at 20%. Moreover, the Toxicity result with MDA-MB-435s [5] is “Yes at 10 μM”. Also, the concentration for half-maximal inhibition (IC50) in the data set on MDA-MB-435s [3] (setting [7]) was roughly 10 µM.
For the compound `CCCCCCCCCCCCCCCCOCC(CO)OC` (centres unmarked) [JPH 1597], in the data set with MDA-MB-435s (SK3+) (Table 2, concentration 300 nM), the “Migration (% of inhibition)” value is given as “No effect”. Moreover, the “Effect on cell migration” value with MDA-MB-435s (SK3+) was “decrease its inhibitory effect on cell migration”. In the data set with MDA-MB-435s [5], the Toxicity entry is “No at 10 μM”. Also, the IC50 in the data set with MDA-MB-435s [3] (setting [7]) was roughly 50 µM.
For the compound `CCCCCCCCCCCCCCCCCCOCC(CO[C@@H]1O[C@H](CO)[C@@H](O[C@@H]2O[C@H](CO)[C@H](O)[C@H](O)[C@H]2O)[C@H](O)[C@H]1O)OC` (some centres unmarked) [JPH 1731], the “Migration (% of inhibition)” value in the data set with MDA-MB-435s (SK3+) (Table 2, concentration 100 nM) stood at 30%.
In the data set on MDA-MB-435s (SK3+) (setting [6]), `CCCCCCCCCCCCCCCCOP(=O)([O-])OCC[N+](C)(C)C` [Miltefosine, reference compound] gave an inhibition at 0.3 µM of 20%. The “Effect on cell migration” value with MDA-MB-435s (SK3+) was “ineffective on cell migration”. In the data set on MDA-MB-435s [3] (Homo sapiens, MDA-MB-435S), the IC50 is roughly 10 µM.
Consider `CCCCCCCCCCCCCCCCOCC(COP(=O)([O-])OCC[N+](C)(C)C)OC(C)=O` (centres unmarked) [PAF, reference compound], for which, in the data set with MDA-MB-435s (SK3+) (Table 2, concentration 300 nM), the “Migration (% of inhibition)” value was “No effect”. Also, the “Effect on cell migration” value with MDA-MB-435s (SK3+) is “no effect on cell migration”. Besides, in the data set on MDA-MB-435s [3] (setting [7]), the Toxicity result is on record as “No until 100 μM”.
On to `CCCCCCCCCCCCCCCCCCOP(=O)([O-])OCC[N+](C)(C)C` [SK55], for which the “Effect on cell migration” value in the data set with MDA-MB-435s (SK3+) is “ineffective on cell migration”. For the same compound, in the data set on MDA-MB-435s [3] (setting [7]), the IC50 was roughly 20 µM.
